The subject of the data set is human maximum recommended daily dose, FDA database. Briefly: DSSTox (FDAMDD) FDA Maximum (Recommended) Daily Dose Database. As to conditions: active compounds read low. A digest of the protocol:
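MRDD values come from clinical trials with daily oral dosing, usually for 3–12 months, for the average adult, in mg/day converted to mg/kg-bw/day assuming 60 kg. Antineoplastic mg/m2 doses are divided by 37. Activity score maps log10(1/MRDD mmol) onto 1–100.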

Setting [1] is: TherapeuticCategory: antineoplastic.
[2] abbreviates: TherapeuticCategory: antipsychotic.
Where [3] appears, read: TherapeuticCategory: antihypertensive.
[4] abbreviates: TherapeuticCategory: antitussive.
[5] abbreviates: TherapeuticCategory: antibacterial.
Setting [6] is: TherapeuticCategory: expectorant.
Where [7] appears, read: TherapeuticCategory: glucocorticoid.
Where [8] appears, read: TherapeuticCategory: diagnostic aid.

With `CO[C@H](C(=O)[C@@H](O)[C@@H](C)O)C1Cc2cc3cc(O[C@H]4C[C@@H](O[C@H]5C[C@@H](O)[C@H](O)[C@@H](C)O5)[C@@H](O)[C@@H](C)O4)c(C)c(O)c3c(O)c2C(=O)[C@H]1O[C@H]1C[C@@H](O[C@H]2C[C@@H](O[C@H]3C[C@](C)(O)[C@H](O)[C@@H](C)O3)[C@H](O)[C@@H](C)O2)[C@H](O)[C@@H](C)O1` (some centres undefined), the maximum recommended daily dose (mmol/kg-bw/day) under setting [1] is 2.76e-05. Turning to `CC(=O)OCCN1CCN(CCCN2c3ccccc3Sc3ccc(Cl)cc32)CC1`, under setting [2], the maximum recommended daily dose (mmol/kg-bw/day) was 0.00336.

As to `CNC1(C)C2CCC(C2)C1(C)C` (centres undefined), the maximum recommended daily dose (mmol/kg-bw/day) under setting [3] was 0.00249. `Nc1ncnc2nc[nH]c12`: the maximum recommended daily dose (mmol/kg-bw/day) (TherapeuticCategory: research) is 0.111.

With `CCCCNc1ccc(C(=O)OCCOCCOCCOCCOCCOCCOCCOCCOCCOC)cc1`, the maximum recommended daily dose (mmol/kg-bw/day) under setting [4] is 0.0166. For the molecule `Nc1ncnc2c1ncn2[C@@H]1O[C@H](COP(=O)(O)OP(=O)(O)OP(=O)(O)O)[C@@H](O)[C@H]1O`, the maximum recommended daily dose (mmol/kg-bw/day) (TherapeuticCategory: coenzyme) is 0.000394. For the molecule `Clc1cccc(Cl)c1NC1=NCCN1`, the maximum recommended daily dose (mmol/kg-bw/day) under setting [3] was 0.000174. Consider `CN1CCC(OC(c2ccccc2)c2ccccc2)CC1`, for which, for the setting “TherapeuticCategory: antihistaminic”, the maximum recommended daily dose (mmol/kg-bw/day) is 0.00118. `CC(=O)OCC(=O)[C@@]1(O)CC[C@H]2[C@@H]3CCC4=CC(=O)CC[C@]4(C)[C@@]3(F)[C@@H](O)C[C@@]21C`: the maximum recommended daily dose (mmol/kg-bw/day) (TherapeuticCategory: mineralcorticoid) was 3.95e-06. For `COC1[C@@H](O[C@@H]2O[C@H](C)[C@@H](O[C@H]3C[C@@](C)(O)[C@H](OC(=O)CC(C)C)[C@H](C)O3)[C@H](N(C)C)[C@H]2O)[C@@H](CC=O)C[C@@H](C)[C@@H](O)/C=C/C=C/C[C@@H](C)OC(=O)C[C@H]1OC(C)=O` (some centres undefined), the maximum recommended daily dose (mmol/kg-bw/day) under setting [5] is 0.0604. As to `Cc1cc2nc3c(=O)[nH]c(=O)nc-3n(C[C@H](O)[C@H](O)[C@H](O)CO)c2cc1C`, the maximum recommended daily dose (mmol/kg-bw/day) (TherapeuticCategory: enzyme cofactor vitamin) is 0.00133. Take `N=C(N)c1ccc(/C=C/c2ccc(C(=N)N)cc2O)cc1`: the maximum recommended daily dose (mmol/kg-bw/day) (TherapeuticCategory: antiprotozoal) was 0.0149. With `OCCN1C[C@H](O)[C@@H](O)[C@H](O)[C@H]1CO`, the maximum recommended daily dose (mmol/kg-bw/day) (TherapeuticCategory: antidiabetic) is 0.0241. Consider `COc1ccc2nc(S(=O)Cc3ncc(C)c(OC)c3C)[nH]c2c1` (centres undefined), for which the maximum recommended daily dose (mmol/kg-bw/day) (TherapeuticCategory: antiulcerative) is 0.00579. Regarding `CO[C@@]1(NC(=O)CSCC#N)C(=O)N2C(C(=O)O)=C(CSc3nnnn3C)CS[C@@H]21`, under setting [5], the maximum recommended daily dose (mmol/kg-bw/day) is 0.212.

`CC(I)C1OCC(CO)O1` (centres undefined): the maximum recommended daily dose (mmol/kg-bw/day) under setting [6] is 0.0155. Regarding `NC(Cc1cc(I)c(Oc2cc(I)c(O)c(I)c2)c(I)c1)C(=O)O` (centres undefined), the maximum recommended daily dose (mmol/kg-bw/day) (TherapeuticCategory: thyroid hormone, antihyperlipoproteinemic) was 6.44e-06.

With `CCc1nn(CCCN2CCN(c3cccc(Cl)c3)CC2)c(=O)n1CCOc1ccccc1`, the maximum recommended daily dose (mmol/kg-bw/day) (TherapeuticCategory: antidepressant, seratonin receptor antagonist) is 0.0213.

As to `CCNNC(=O)[C@@H]1[C@H](c2cc(OC)c(OC)c(OC)c2)c2cc3c(cc2[C@H](O)[C@H]1CO)OCO3`, under setting [1], the maximum recommended daily dose (mmol/kg-bw/day) is 0.00702.

For `CC1C2Cc3ccc(O)cc3C1(C)CCN2CC1CC1` (centres undefined), the maximum recommended daily dose (mmol/kg-bw/day) (TherapeuticCategory: narcotic antagonist) is 0.000246.

Consider `CCCC(=O)O[C@]1(C(=O)COC(=O)CC)[C@@H](C)C[C@H]2[C@@H]3CCC4=CC(=O)C=C[C@]4(C)[C@@]3(F)[C@@H](O)C[C@@]21C`, for which the maximum recommended daily dose (mmol/kg-bw/day) under setting [7] is 0.000289.

`CC(=O)Nc1c(I)cc(I)c(C(=O)O)c1I`: under setting [8], the maximum recommended daily dose (mmol/kg-bw/day) is 0.18. Consider `C/C=C\C1=C(C(=O)O)N2C(=O)[C@@H](NC(=O)[C@H](N)c3ccc(O)cc3)[C@H]2SC1`, for which the maximum recommended daily dose (mmol/kg-bw/day) under setting [5] was 0.0429.

Consider `NC12CC3CC(CC(C3)C1)C2`, for which the maximum recommended daily dose (mmol/kg-bw/day) (TherapeuticCategory: antiviral, antiparkinsonian) is 0.0441. As to `CN(CCCN1c2ccccc2CCc2ccccc21)CC(=O)c1ccc(Cl)cc1`, for the setting “TherapeuticCategory: antidepressant”, the maximum recommended daily dose (mmol/kg-bw/day) is 0.00835. Turning to `CC[N+](C)(C)c1cccc(O)c1`, the maximum recommended daily dose (mmol/kg-bw/day) (TherapeuticCategory: cholinergic) was 0.00347.

With `CCC(OC(C)=O)C(CC(C)N(C)C)(c1ccccc1)c1ccccc1` (centres undefined), the maximum recommended daily dose (mmol/kg-bw/day) (TherapeuticCategory: none) was 0.00659. For `COCCOC(=O)C1=C(C)NC(C)=C(C(=O)OC(C)C)C1c1cccc([N+](=O)[O-])c1` (centres undefined), the maximum recommended daily dose (mmol/kg-bw/day) (TherapeuticCategory: cerebral vasodilator) is 0.0143. Consider `Nc1[nH]c(=O)ncc1F`, for which the maximum recommended daily dose (mmol/kg-bw/day) (TherapeuticCategory: antifungal) is 1.16. As for `C#C[C@]1(O)CC[C@H]2[C@@H]3CCC4=CC(=O)CCC4=C3C=C[C@@]21CC`, the maximum recommended daily dose (mmol/kg-bw/day) (TherapeuticCategory: antigonadotropin) was 0.000135. For the molecule `O=C(O)CCCC[C@@H]1SC[C@@H]2NC(=O)N[C@@H]21`, for the setting “TherapeuticCategory: none”, the maximum recommended daily dose (mmol/kg-bw/day) was 1.36e-05. Regarding `NC(N)=NS(=O)(=O)c1ccc(N)cc1`, the maximum recommended daily dose (mmol/kg-bw/day) under setting [5] was 0.0934. Turning to `CCN(CC)Cc1cc(Nc2ccnc3cc(Cl)ccc23)ccc1O`, the maximum recommended daily dose (mmol/kg-bw/day) (TherapeuticCategory: antimalarial) was 0.00936. Regarding `COc1ccccc1OCC(O)COC(N)=O` (centres undefined), under “TherapeuticCategory: skeletal muscle relaxant”, the maximum recommended daily dose (mmol/kg-bw/day) was 0.415. As for `NS(=O)(=O)c1cc2c(cc1C(F)(F)F)NCNS2(=O)=O`, for the setting “TherapeuticCategory: antihypertensive, diuretic”, the maximum recommended daily dose (mmol/kg-bw/day) is 0.0101. As for `NCC(=O)O`, the maximum recommended daily dose (mmol/kg-bw/day) (TherapeuticCategory: none) is 1.33.

`C[C@H]1O[C@@H](n2cc(F)c(=O)[nH]c2=O)[C@H](O)[C@@H]1O`: under setting [1], the maximum recommended daily dose (mmol/kg-bw/day) is 0.0812.

For `CCCC(=O)Nc1c(I)cc(I)c(CC(CC)C(=O)O)c1I` (centres undefined), the maximum recommended daily dose (mmol/kg-bw/day) under setting [8] was 0.0754. On to `OC[C@@H](O)CN1CCN(c2ccccc2)CC1`, for which the maximum recommended daily dose (mmol/kg-bw/day) under setting [4] is 0.0127. On to `C[C@H]1CC[C@@H]2N(C1)C[C@@H]1[C@H]([C@@H](O)[C@H](O)[C@]3(O)[C@H]1C[C@@]14O[C@@]5(O)[C@@H]([C@@H](O)[C@@H](O)[C@@H]31)[C@]4(C)CC[C@@H]5O)[C@]2(C)O`, for which, under “TherapeuticCategory: none”, the maximum recommended daily dose (mmol/kg-bw/day) was 4.76e-05. With `CN[C@@H]1[C@@H](O)[C@@H](O[C@@H]2[C@@H](O)[C@H](O[C@H]3O[C@H](C(C)N)CC[C@H]3N)[C@@H](N)C[C@H]2N)OC[C@]1(C)O` (some centres undefined), the maximum recommended daily dose (mmol/kg-bw/day) under setting [5] is 0.00647. For the molecule `COc1ccccc1OCC(O)CO` (centres undefined), the maximum recommended daily dose (mmol/kg-bw/day) under setting [6] is 0.101. As for `CC(C)NCC(O)COc1cccc2[nH]ccc12` (centres undefined), under “TherapeuticCategory: antihypertensive, antianginal, antiarrhythmic, antiglaucomic”, the maximum recommended daily dose (mmol/kg-bw/day) is 0.00403.

In the case of `Cc1cc2c(C(C)C)c(O)c(O)c(C=O)c2c(O)c1-c1c(C)cc2c(C(C)C)c(O)c(O)c(C=O)c2c1O`, the maximum recommended daily dose (mmol/kg-bw/day) (TherapeuticCategory: none) is 0.000642. For `CCC(=O)O[C@](Cc1ccccc1)(c1ccccc1)[C@H](C)CN(C)C`, under “TherapeuticCategory: narcotic analgesic”, the maximum recommended daily dose (mmol/kg-bw/day) was 0.0191. Turning to `CCNC(C)Cc1cccc(C(F)(F)F)c1` (centres undefined), the maximum recommended daily dose (mmol/kg-bw/day) (TherapeuticCategory: anorexic) is 0.00865. Regarding `C[C@]12C=CC(=O)C=C1C(Cl)=C[C@@H]1[C@@H]2[C@@H](O)C[C@@]2(C)[C@H]1CC[C@]2(O)C(=O)CO`, the maximum recommended daily dose (mmol/kg-bw/day) under setting [7] was 0.000529. For the molecule `CN(C)CCCN1c2ccccc2Sc2ccc(C(F)(F)F)cc21`, the maximum recommended daily dose (mmol/kg-bw/day) under setting [2] was 0.00709. Consider `CCC1(c2ccccc2)C(=O)NCNC1=O`, for which the maximum recommended daily dose (mmol/kg-bw/day) (TherapeuticCategory: anticonvulsant) was 0.0382. Consider `CN1C(=O)CN=C(c2ccccc2)c2cc(Cl)ccc21`, for which the maximum recommended daily dose (mmol/kg-bw/day) (TherapeuticCategory: anxiolytic, skeletal muscle relaxant) is 0.00234. For the molecule `C[C@]12C=CC(=O)C=C1CC[C@@H]1[C@@H]2[C@@H](O)C[C@@]2(C)[C@H]1CC[C@]2(O)C(=O)COC(=O)CCCc1ccc(N(CCCl)CCCl)cc1`, under setting [1], the maximum recommended daily dose (mmol/kg-bw/day) was 0.00515.

Take `CCC(=O)OCC(=O)[C@@]1(OC(=O)CC)[C@H](C)C[C@H]2[C@@H]3CCC4=CC(=O)C=C[C@]4(C)[C@@]3(F)[C@@H](O)C[C@@]21C`: the maximum recommended daily dose (mmol/kg-bw/day) (TherapeuticCategory: glucocorticoid, anti inflammatory) is 0.000297. Consider `CN(C)CCOc1ccc(/C(=C(/CCCl)c2ccccc2)c2ccccc2)cc1`, for which the maximum recommended daily dose (mmol/kg-bw/day) (TherapeuticCategory: antiestrogen, antineoplastic) was 0.0082. Consider `CC(C)c1cccc(C(C)C)c1O`, for which, for the setting “TherapeuticCategory: anesthetic”, the maximum recommended daily dose (mmol/kg-bw/day) is 0.014.

(Values after PubChem BioAssay AID1195 (EPA DSSTox, 2008).)
